Read-outs that look alike come from different tables or passages of the source. Marks after values point to notes of the source that are not given here.
Tests used:
[1] = Plasma ranolazine pharmacokinetics before, during and after posaconazole in normal-weight and obese subjects; assay type: in vivo, human; details: for Time the interaction persisted above an AUC GMR of 1.5: after cessation of posaconazole administration; for Time the interaction persisted above a Cmax GMR of 1.5: after cessation of posaconazole
Procedure: Procedures. […] On study day 2, subjects received posaconazole (300 mg delayed-release tablet twice a day), and on the mornings of days 3-15, subjects received posaconazole (300 mg delayed-release tablet daily). Because posaconazole is to be taken with food,^6 subjects were fed a continental breakfast in the clinical research unit after receiving posaconazole and before discharge from the unit. […] Samples were centrifuged, and the plasma was separated and frozen at −70° C. until the time of assay of plasma posaconazole concentrations. […] Plasma samples were extracted by methyl tertiary butyl ether, centrifuged, and the upper layer was transferred to plastic injection vials with MeOH/water (50:50). An aliquot of the sample was then injected onto a high-pressure liquid chromatography with tandem mass spectrometry triple quadrupole mass spectrometer (Sciex API-5500). The analytical column was a Unison CK-218, 3 μm particle size HPLC column (50×2 mm) from Imtakt USA (Portland, OR). […] Pharmacokinetic and Statistical Methods. […] This was used to calculate the half-life (t1/2). The area under the plasma concentration curve from time 0 until the last nonzero point was determined by the linear trapezoidal method. To this was added the residual area, calculated as the final nonzero concentration divided by β, yielding the total area under the plasma concentration curve extrapolated to infinity (AUC). Also tabulated was the observed maximum plasma concentration (Cmax). Variables were aggregated as arithmetic mean and SD.

[2] = as above; assay type: in vivo; details: human, oral, 500 mg, Day 1, obese subjects, ranolazine 500 mg ER
[3] = human, plasma, oral, 500 mg, Day 1 (before posaconazole), normal-weight subjects, ranolazine 500 mg ER, mean ± SD
[4] = human, plasma, oral, 500 mg, Day 1 (before posaconazole), obese subjects, ranolazine 500 mg ER, mean ± SD
[5] = human, plasma, oral, 500 mg, Day 18 (3 days after last posaconazole dose), normal-weight subjects, ranolazine 500 mg ER, mean ± SD
[6] = human, plasma, oral, 500 mg, Day 18 (3 days after last posaconazole dose), obese subjects, ranolazine 500 mg ER, mean ± SD
[7] = human, plasma, oral, 500 mg, Day 22 (7 days after last posaconazole dose), normal-weight subjects, ranolazine 500 mg ER, mean ± SD
[8] = human, plasma, oral, 500 mg, Day 22 (7 days after last posaconazole dose), obese subjects, ranolazine 500 mg ER, mean ± SD
[9] = human, plasma, oral, 500 mg, Day 25 (10 days after last posaconazole dose), normal-weight subjects, ranolazine 500 mg ER, mean ± SD
[10] = human, plasma, oral, 500 mg, Day 25 (10 days after last posaconazole dose), obese subjects, ranolazine 500 mg ER, mean ± SD
[11] = human, plasma, oral, 500 mg, Day 29 (14 days after last posaconazole dose), normal-weight subjects, ranolazine 500 mg ER, mean ± SD
[12] = human, plasma, oral, 500 mg, Day 29 (14 days after last posaconazole dose), obese subjects, ranolazine 500 mg ER, mean ± SD
[13] = human, plasma, oral, Day 15 (last day of posaconazole 300 mg daily), normal-weight subjects, ranolazine 500 mg ER, mean ± SD
[14] = human, plasma, oral, Day 15 (last day of posaconazole 300 mg daily), obese subjects, ranolazine 500 mg ER, mean ± SD

T1/2 ([1]; Day 1 (before posaconazole), normal-weight subjects, ranolazine 500 mg ER, mean ± SD): 4.98 ± 1.50^a h
Time the interaction persisted above an AUC GMR of 1.5 ([1]; normal-weight subjects): at least 7 days
Time the interaction persisted above an AUC GMR of 1.5 ([1]; obese subjects): ≥ 10 days
Time the interaction persisted above a Cmax GMR of 1.5 ([1]; normal-weight subjects): 7 days
Time the interaction persisted above a Cmax GMR of 1.5 ([1]; obese subjects): 10 days
Time the lower bound of the AUC GMR 90% CI remained above 1.0 ([1]; both normal-weight and obese subjects): 7 days
AUC(0-inf) [1, 3]: 7080 ± 3600 ng·h/mL
half-life [1, 3]: 4.99 ± 1.5 h
Cmax ([1]; human, plasma, oral, 500 mg, Day 1 (before posaconazole), normal-weight subjects, ranolazine 500 mg extended-release tablet, mean ± SD, read-out: Cmax): 665 ± 318 ng/mL
AUC(0-inf) [1, 4]: 8130 ± 4840 ng·h/mL
half-life [1, 4]: 6.02 ± 1.75 h
Cmax ([1]; human, plasma, oral, 500 mg, Day 1 (before posaconazole), obese subjects, ranolazine 500 mg extended-release tablet, mean ± SD, read-out: Cmax): 559 ± 271 ng/mL
Cmax ([1]; human, plasma, oral, 500 mg, Day 1, normal-weight subjects, ranolazine 500 mg ER, read-out: Geometric mean Cmax): 665 ± 318 ng/mL
AUC(0-inf) [1, 5]: 17300 ± 10300 ng·h/mL
half-life [1, 5]: 5.73 ± 1.53 h
Cmax ([1]; human, plasma, oral, 500 mg, Day 18 (3 days after last posaconazole dose), normal-weight subjects, ranolazine 500 mg ER, mean ± SD, read-out: Cmax): 1190 ± 469 ng/mL
AUC(0-inf) [1, 6]: 19300 ± 14200 ng·h/mL
half-life [1, 6]: 7.93 ± 2.98 h
Cmax ([1]; human, plasma, oral, 500 mg, Day 18 (3 days after last posaconazole dose), obese subjects, ranolazine 500 mg ER, mean ± SD, read-out: Cmax): 1100 ± 502 ng/mL
AUC(0-inf) [1, 7]: 13400 ± 6250 ng·h/mL
half-life [1, 7]: 6.47 ± 3.14 h
Cmax ([1]; human, plasma, oral, 500 mg, Day 22 (7 days after last posaconazole dose), normal-weight subjects, ranolazine 500 mg ER, mean ± SD, read-out: Cmax): 974 ± 400 ng/mL
AUC(0-inf) [1, 8]: 15900 ± 11800 ng·h/mL
half-life [1, 8]: 6.09 ± 2.1 h
Cmax ([1]; human, plasma, oral, 500 mg, Day 22 (7 days after last posaconazole dose), obese subjects, ranolazine 500 mg ER, mean ± SD, read-out: Cmax): 1060 ± 508 ng/mL
AUC(0-inf) [1, 9]: 9380 ± 4590 ng·h/mL
half-life [1, 9]: 5.05 ± 1.82 h
Cmax ([1]; human, plasma, oral, 500 mg, Day 25 (10 days after last posaconazole dose), normal-weight subjects, ranolazine 500 mg ER, mean ± SD, read-out: Cmax): 928 ± 482 ng/mL
AUC(0-inf) [1, 10]: 13800 ± 10600 ng·h/mL
half-life [1, 10]: 6.07 ± 2.1 h
Cmax ([1]; human, plasma, oral, 500 mg, Day 25 (10 days after last posaconazole dose), obese subjects, ranolazine 500 mg ER, mean ± SD, read-out: Cmax): 976 ± 487 ng/mL
AUC(0-inf) [1, 11]: 8570 ± 3800 ng·h/mL
half-life [1, 11]: 4.45 ± 1.38 h
Cmax ([1]; human, plasma, oral, 500 mg, Day 29 (14 days after last posaconazole dose), normal-weight subjects, ranolazine 500 mg ER, mean ± SD, read-out: Cmax): 751 ± 276 ng/mL
AUC(0-inf) [1, 12]: 10200 ± 7940 ng·h/mL
half-life [1, 12]: 6.38 ± 3.05 h
Cmax ([1]; human, plasma, oral, 500 mg, Day 29 (14 days after last posaconazole dose), obese subjects, ranolazine 500 mg ER, mean ± SD, read-out: Cmax): 719 ± 333 ng/mL
AUC ([1]; human, plasma, oral, 500 mg, Geometric mean AUC for ranolazine, Day 1, normal-weight subjects, ranolazine 500 mg ER): 6450 ng·h/mL
AUC(0-inf) [1, 13]: 27500 ± 14900 ng·h/mL
half-life [1, 13]: 9.54 ± 4.3 h
Cmax ([1]; human, plasma, oral, Day 15 (last day of posaconazole 300 mg daily), normal-weight subjects, ranolazine 500 mg ER, mean ± SD, read-out: Cmax): 1430 ± 666 ng/mL
AUC(0-inf) [1, 14]: 25800 ± 21600 ng·h/mL
half-life [1, 14]: 8.78 ± 5.58 h
Cmax ([1]; human, plasma, oral, Day 15 (last day of posaconazole 300 mg daily), obese subjects, ranolazine 500 mg ER, mean ± SD, read-out: Cmax): 1180 ± 512 ng/mL
Cmax ([2]; read-out: Geometric mean Cmax): 559 ± 271 ng/mL
AUC ([2]; Geometric mean AUC for ranolazine): 6960 ng·h/mL
SMILES: COc1ccccc1OCC(O)CN1CCN(CC(=O)Nc2c(C)cccc2C)CC1 (stereo not shown) [ranolazine]
